Measurements: patent US9056858B2, “Indazole and pyrazolopyridine compounds as CCR1 receptor antagonists” (Boehringer Ingelheim International GmbH, priority 2009, dated 2015)

These compounds were tested against T1, CCR1 (Homo sapiens, UniProt P32246) (assay: functional cellular assay measuring calcium flux in CCR1 transfected cells (block of CCR1/MIP-1α interaction)). Conditions: cells stably expressing recombinant CCR1 and G-alpha-16, MIP-1alpha added at EC80.
T1 construct: host or cells: Non-adherent cells
T1 sequence (P32246 1-355): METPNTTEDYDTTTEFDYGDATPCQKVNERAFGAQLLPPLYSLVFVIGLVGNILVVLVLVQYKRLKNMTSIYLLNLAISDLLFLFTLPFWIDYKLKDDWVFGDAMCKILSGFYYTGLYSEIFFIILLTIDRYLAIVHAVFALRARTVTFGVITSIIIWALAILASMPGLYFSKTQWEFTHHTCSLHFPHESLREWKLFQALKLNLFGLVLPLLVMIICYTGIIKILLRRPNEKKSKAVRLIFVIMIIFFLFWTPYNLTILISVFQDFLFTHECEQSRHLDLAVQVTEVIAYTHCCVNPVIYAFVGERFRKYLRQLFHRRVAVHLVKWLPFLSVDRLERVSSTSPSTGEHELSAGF
Type: cell-based
Experimental: Compounds are assessed for the ability to block the interaction of CCR1 and MIP-1α in a functional cellular assay measuring calcium flux in CCR1 transfected cells.
Non-adherent cells purchased from Chemicon Corporation (HTS005C), stably expressing recombinant CCR1 and G-alpha-16 are grown in RPMI 1640 medium (Mediatech 10-080-CM) supplemented with 10% FBS, 0.4 mg/mL Geneticin and penicillin/streptomycin. On the day of the assay, the cells are loaded with Calcium 4 dye (Molecular Devices R7448) with Probenecid (Invitrogen P346400) at 8E5 cells/mL for 1 hour at room temperature. After 1 hour, they are seeded in a 384-well tissue culture-treated plate at a density of 20,000 cells/well. Appropriately diluted test compound is added to the well to achieve a top concentration of 3,000 nM (diluted 4-fold with 10 doses total). The final concentration of DMSO is 1%. The buffer is HBSS (Invitrogen 14025) with 20 mM HEPES at pH 7.4. The cells incubate 30 minutes at 37 C and then 30 minutes at room temperature. The plates are transferred to the […] FDSS6000 where MIP-1alpha in 1% BSA is added at the EC80 final concentration. All plates must be read within 4 hours of the start of dye-loading. Wells +/− MIP-1alpha containing diluted DMSO instead of compound serve as the controls. Data are analyzed using Activity Base software.

| Structure (SMILES) | IC50 [nM] |
| --- | --- |
| COC(=O)CCS(=O)(=O)c1cccc(C2(NC(=O)c3cncc4c3cnn4-c3ccc(F)cc3)CC2)c1 [3-[3-(1-{[1-(4-Fluoro-phenyl)-1H-pyrazolo[3,4-c]pyridine-4-carbonyl]-amino}-cyclopropyl)-benzenesulfonyl]-propionic acid methyl ester] | 17 |
| O=C(NC1(c2ncc(Br)cn2)CC1)c1cncc2c1cnn2-c1ccc(F)cc1 [1-(4-Fluoro-phenyl)-1H-pyrazolo[3,4-c]pyridine-4-carboxylic acid [1-(5-bromo-pyrimidin-2-yl)-cyclopropyl]-amide] | 45 |
| Cc1nc(C2(NC(=O)c3cncc4c3cnn4-c3ccc(F)cc3)CC2)cs1 [1-(4-Fluoro-phenyl)-1H-pyrazolo[3,4-c]pyridine-4-carboxylic acid [1-(2-methyl-thiazol-4-yl)-cyclopropyl]-amide] | 99 |
| CNC(=O)CNC(=O)c1cccc(C2(NC(=O)c3cncc4c3cnn4-c3ccc(F)cc3)CC2)c1 [1-(4-Fluoro-phenyl)-1H-pyrazolo[3,4-c]pyridine-4-carboxylic acid {1-[3-(methylcarbamoylmethyl-carbamoyl)-phenyl]-cyclopropyl}-amide] | 78 |
| NC(=O)CNC(=O)c1cccc(C2(NC(=O)c3cncc4c3cnn4-c3ccc(F)cc3)CC2)c1 [1-(4-Fluoro-phenyl)-1H-pyrazolo[3,4-c]pyridine-4-carboxylic acid {1-[3-(carbamoylmethyl-carbamoyl)-phenyl]-cyclopropyl}-amide] | 74 |
| O=C(NC1(c2ccncc2)CC1)c1cncc2c1cnn2-c1ccc(F)cc1 [1-(4-Fluoro-phenyl)-1H-pyrazolo[3,4-c]pyridine-4-carboxylic acid (1-pyridin-4-yl-cyclopropyl)-amide] | 18 |
| Cc1ccc(C2(NC(=O)c3cncc4c3cnn4-c3ccc(F)cc3)CC2)cc1 [1-(4-Fluoro-phenyl)-1H-pyrazolo[3,4-c]pyridine-4-carboxylic acid (1-p-tolyl-cyclopropyl)-amide] | 14 |
| CC(=O)N(C)c1ccc(C2(NC(=O)c3cncc4c3cnn4-c3ccc(F)cc3)CC2)cn1 [1-(4-Fluoro-phenyl)-1H-pyrazolo[3,4-c]pyridine-4-carboxylic acid {1-[6-(acetyl-methyl-amino)-pyridin-3-yl]-cyclopropyl}-amide] | 20 |
| O=C(O)c1ccc(C2(NC(=O)c3cncc4c3cnn4-c3ccc(F)cc3)CC2)cc1 [4-(1-{[1-(4-Fluoro-phenyl)-1H-pyrazolo[3,4-c]pyridine-4-carbonyl]-amino}-cyclopropyl)-benzoic acid] | 69 |
| O=C(NC1(c2ccc(F)cc2)CC1)c1cncc2c1cnn2-c1ccc(F)cc1 [1-(4-Fluoro-phenyl)-1H-pyrazolo[3,4-c]pyridine-4-carboxylic acid [1-(4-fluoro-phenyl)-cyclopropyl]-amide] | 75 |
| NC(=O)c1cccc(C2(NC(=O)c3cncc4c3cnn4-c3ccc(F)cc3)CC2)c1 [1-(4-Fluoro-phenyl)-1H-pyrazolo[3,4-c]pyridine-4-carboxylic acid [1-(3-carbamoyl-phenyl)-cyclopropyl]-amide] | 40 |
| N#CCNC(=O)c1cccc(C2(NC(=O)c3cncc4c3cnn4-c3ccc(F)cc3)CC2)c1 [1-(4-Fluoro-phenyl)-1H-pyrazolo[3,4-c]pyridine-4-carboxylic acid {1-[3-(cyanomethyl-carbamoyl)-phenyl]-cyclopropyl}-amide] | 35 |
| O=C(NC1(c2noc(C3CC3)n2)CC1)c1cncc2c1cnn2-c1ccc(F)cc1 [1-(4-Fluoro-phenyl)-1H-pyrazolo[3,4-c]pyridine-4-carboxylic acid [1-(5-cyclopropyl-1,2,4-oxadiazol-3-yl)-cyclopropyl]-amide] | 61 |

Now those with a lower IC50, led by results:

| IC50 [nM] | Structure (SMILES) |
| --- | --- |
| 13 | CS(=O)(=O)c1cc(C2(NC(=O)c3cc(I)cc4c3cnn4-c3ccc(F)cc3)CC2)ccn1 [1-(4-Fluoro-phenyl)-6-iodo-1H-indazole-4-carboxylic acid [1-(2-methanesulfonyl-pyridin-4-yl)-cyclopropyl]-amide] |
| 11 | COC(=O)c1cccc(C2(NC(=O)c3cncc4c3cnn4-c3ccc(F)cc3)CC2)c1 [3-(1-{[1-(4-Fluoro-phenyl)-1H-pyrazolo[3,4-c]pyridine-4-carbonyl]-amino}-cyclopropyl)-benzoic acid methyl ester] |
| 10 | O=C(NC1(c2ccc(Cl)cc2)CC1)c1cncc2c1cnn2-c1ccc(F)cc1 [1-(4-Fluoro-phenyl)-1H-pyrazolo[3,4-c]pyridine-4-carboxylic acid [1-(4-chloro-phenyl)-cyclopropyl]-amide] |
| 9 | O=C(NC1(c2ccc(Br)cn2)CC1)c1cncc2c1cnn2-c1ccc(F)cc1 [1-(4-Fluoro-phenyl)-1H-pyrazolo[3,4-c]pyridine-4-carboxylic acid [1-(5-bromo-pyridin-2-yl)-cyclopropyl]-amide] |
| 7 | CS(=O)(=O)c1cc(C(=O)NC2(c3ccnc(S(C)(=O)=O)c3)CC2)c2cnn(-c3ccc(F)cc3)c2c1 [1-(4-Fluoro-phenyl)-6-methanesulfonyl-1H-indazole-4-carboxylic acid [1-(2-methanesulfonyl-pyridin-4-yl)-cyclopropyl]-amide] |
| 5 | NS(=O)(=O)c1ccc(C2(NC(=O)c3cncc4c3cnn4-c3ccc(F)cc3)CC2)cn1 [1-(4-Fluoro-phenyl)-1H-pyrazolo[3,4-c]pyridine-4-carboxylic acid [1-(6-sulfamoyl-pyridin-3-yl)-cyclopropyl]-amide] |
| 5 | COC(=O)CNC(=O)c1cccc(C2(NC(=O)c3cncc4c3cnn4-c3ccc(F)cc3)CC2)c1 [[3-(1-{[1-(4-Fluoro-phenyl)-1H-pyrazolo[3,4-c]pyridine-4-carbonyl]-amino}-cyclopropyl)-benzoylamino]-acetic acid methyl ester] |
| 3 | O=C(NC1(c2ccnc(Br)c2)CCC1)c1cncc2c1cnn2-c1ccc(F)cc1 [1-(4-Fluoro-phenyl)-1H-pyrazolo[3,4-c]pyridine-4-carboxylic acid [1-(2-bromo-pyridin-4-yl)-cyclobutyl]-amide] |
| 3 | CN(C)c1cccc(C2(NC(=O)c3cncc4c3cnn4-c3ccc(F)cc3)CC2)n1 [1-(4-Fluoro-phenyl)-1H-pyrazolo[3,4-c]pyridine-4-carboxylic acid [1-(6-dimethylamino-pyridin-2-yl)-cyclopropyl]-amide] |
| 2 | O=C(NC1(c2cc(I)ccn2)CC1)c1cncc2c1cnn2-c1ccc(F)cc1 [1-(4-Fluoro-phenyl)-1H-pyrazolo[3,4-c]pyridine-4-carboxylic acid [1-(4-iodo-pyridin-2-yl)-cyclopropyl]-amide] |
| 2 | CS(=O)(=O)c1cc(C2(NC(=O)c3cc(Br)cc4c3cnn4-c3ccc(F)cc3)CC2)ccn1 [6-Bromo-1-(4-fluoro-phenyl)-1H-indazole-4-carboxylic acid [1-(2-methanesulfonyl-pyridin-4-yl)-cyclopropyl]-amide] |
| 1 | CS(=O)(=O)c1cccc(C2(NC(=O)c3cncc4c3cnn4-c3ccc(F)cc3)CC2)c1 [1-(4-Fluoro-phenyl)-1H-pyrazolo[3,4-c]pyridine-4-carboxylic acid [1-(3-methanesulfonyl-phenyl)-cyclopropyl]-amide] |
| 1 | O=C(NC1(c2cccc(Br)c2)CC1)c1cncc2c1cnn2-c1ccc(F)cc1 [1-(4-Fluoro-phenyl)-1H-pyrazolo[3,4-c]pyridine-4-carboxylic acid [1-(3-bromo-phenyl)-cyclopropyl]-amide] |
